Data as given in patent US20220265657A1, “ADMINISTRATION METHOD AND DOSAGE REGIMEN FOR TREATMENT OF NEURODEGENERATIVE DISEASES USING TRAMETINIB AND MARKERS” (GENUV INC., priority 2019, published 2022).
Where two headings read alike, the source gives them in different places.

What was measured:
[1] = tested on: patient with Alzheimer's disease; assay: Therapeutic effects of trametinib in humans; format: in vivo, human; settings: daily for at least four weeks, brain Cmax at least 0.25 ng/g
Procedure: Trametinib is administered to a patient with Alzheimer's disease in an amount that provides a mean peak trametinib concentration (Cmax) of at least 0.25 ng/g in the brain. The administration is performed daily for at least four weeks.

5XFAD mice [2] = assay: LTP recording (EPSCs) at hippocampal CA1 region; format: in vivo; settings: 8-month old 5XFAD mice, oral administration
5XFAD mice [3] = assay: Behavioral studies: Y-maze and novel object recognition tests; format: in vivo
Procedure: (§1) Trametinib treatment: Trametinib (Medchemexpress, Monmouth Junction, N.J.) was micronized and suspended in the vehicle containing 5% mannitol, 1.5% hydroxypropyl methylcellulose and 0.2% sodium lauryl sulfate. For pharmacokinetic analysis, 0.05, 0.2 and 0.8 mg/kg of trametinib were orally administered to 7-week-old normal mice (ICR, n=5 per group) as a single administration. […] For studies on the change in pERK expression in normal mice and whole cell RNA sequencing study, 0.1 mg/kg/day of trametinib (in 4% DMSO+96% corn oil) was orally administered to 6-week old C57BL/6 mice (n=3 per group). Mice were sacrificed after 1, 2, 3, or 4 weeks of administration. 5XFAD mice (male, n=7˜10 per group) were divided into vehicle and trametinib treated groups. 12-month old mice received vehicle or 0.1 mg/kg of trametinib for 1 month by oral gavage once a day (These mice are referred to as “13-month old 5XFAD mice” in the Examples). […] Blood was obtained after completion of treatment.

primary cortical neurons [4] = assay: Immunofluorescence of LC3, LAMP1 and lysotracker in primary cortical neurons; format: cell-based, ICR mice; settings: even in the presence of Aβ1-42 oligomers
Procedure: Cell culture: SH-SY5Y neuroblastoma cells were cultured at 37° C., 5% CO2., in Dulbecco's Modified Eagle Medium/Ham's F-12 nutrient mixture (DMEM/F12) (Invitrogen, Carlsbad, Calif.) supplemented with 10% heat-inactivated fetal bovine serum containing 100 units/ml penicillin, 100 μg/ml streptomycin. Primary cortical neuron cultures were derived from embryo day 18 (E18) from ICR mice. The dissociated cells were plated on glass cover slips coated with poly-D-lysine in Neurobasal medium supplemented with 2% B27 (Invitrogen), 100 units/ml penicillin, 100 μg/ml streptomycin, and 2 mM L-glutamine. Primary NSCs from normal mice were isolated from the subventricular zone (SVZ) of 8 week-old C57BL/6 mice brain. NSCs from adult Tg2576 mice brain were obtained from Seoul National University Hospital. […]
Immunocytochemistry: SH-SY5Y cells or adult NSCs were placed on glass coverslips coated with poly-L-ornithine/laminin or poly-D-lysine, respectively. […] The percentage of coefficient was calculated using the pixels above threshold of fluorescence intensities. […] The fluorescence intensity was observed under a confocal microscopy using a LSM700 microscope (Carl Zeiss). The number of LysoTracker puncta was analyzed with Icy software.

[5] = Pharmacokinetic analysis, brain and plasma concentration after single oral administration; format: in vivo; settings: normal mice
Procedure: as §1

5XFAD mice [6] = settings: for decrease of plasma cathepsin B level compared to vehicle treated 5XFAD mice: 8-month-old 5XFAD mice, 3 months oral
primary cortical neurons [7] = assay: Dendritic spine formation in primary cortical neurons; format: cell-based, ICR mice
Procedure: Cell culture: SH-SY5Y neuroblastoma cells were cultured at 37° C., 5% CO2., in Dulbecco's Modified Eagle Medium/Ham's F-12 nutrient mixture (DMEM/F12) (Invitrogen, Carlsbad, Calif.) supplemented with 10% heat-inactivated fetal bovine serum containing 100 units/ml penicillin, 100 μg/ml streptomycin. Primary cortical neuron cultures were derived from embryo day 18 (E18) from ICR mice. The dissociated cells were plated on glass cover slips coated with poly-D-lysine in Neurobasal medium supplemented with 2% B27 (Invitrogen), 100 units/ml penicillin, 100 μg/ml streptomycin, and 2 mM L-glutamine. Primary NSCs from normal mice were isolated from the subventricular zone (SVZ) of 8 week-old C57BL/6 mice brain. NSCs from adult Tg2576 mice brain were obtained from Seoul National University Hospital. The neurospheres were cultured as previously described (M. Y. Kim, B. S. Moon, K. Y. Choi, Isolation and maintenance of cortical neural progenitor cells in vitro. Methods Mol Biol 1018, 3-10 (2013)). For neurosphere culture from normal mice, the cells were dissociated from brain tissue and grown in N2 medium in 25 cm^2 flasks (SPL, Gyeonggi-do, Korea) in suspension. bFGF (20 ng/ml, Peprotech, Princeton, N.J.) and human EGF (20 ng/ml, Peprotech) were added to the media to allow the cells to form neurospheres. For analyses, NSCs were cultured as a monolayer. For differentiation of NSCs, the neurospheres were dissociated with TrypLE (Invitrogen), plated on 15 μg/ml poly-L-ornithine-(Sigma-Aldrich, St. Louis, Mo.) and 10 μg/ml fibronectin (Gibco)-coated plates, and cultured in bFGF- and EGF-depleted N2 medium for 2 days. For neurosphere culture from Tg2576 mice, the cells were grown in DMEM/F12 supplemented with B27 supplements in 75 cm^2 flasks (SPL) in suspension. bFGF (10 ng/ml) and human EGF (10 ng/ml) were added to the media to allow the cells to form neurospheres. […]

SMILES: CC(=O)Nc1cccc(-n2c(=O)n(C3CC3)c(=O)c3c(Nc4ccc(I)cc4F)n(C)c(=O)c(C)c32)c1 [trametinib]
- behavioral and/or physiological symptoms associated with Alzheimer's disease [1]: reduces behavioral and/or physiological symptoms associated with Alzheimer's disease
- long-term potentiation (LTP), EPSC slope (5XFAD mice [2]): recovered in the trametinib-orally administered animals to a level almost comparable to that of the wild type control
- memory formation in Y-maze and novel object recognition tests (5XFAD mice [3]): recovery of memory formation
- co-staining of LC3-LAMP1 (primary cortical neurons [4]): increased co-staining of LC3-LAMP1
- lysotracker-positive acidic puncta (primary cortical neurons [4]): increased
- Kp ([5]; ICR, mouse, brain and plasma, 0.8 mg/kg, highest dose group, read-out: brain/plasma exposure ratio (AUC)): 0.477
- penetration of the blood-brain barrier (BBB) [5]: confirmed to penetrate the blood-brain barrier (BBB)
- decrease of plasma cathepsin B level compared to vehicle treated 5XFAD mice (5XFAD mice [6]; 0.05 mg/kg/day): 56.16%
- decrease of plasma cathepsin B level compared to vehicle treated 5XFAD mice (5XFAD mice [6]; 0.1 mg/kg/day): 99.2%
- plasma cathepsin B level compared to 5XFAD-vehicle group (5XFAD mice [6]; 13-month-old 5XFAD mice, 0.1 mg/kg/day, 1 month oral): decreasing trend
- increase in number of dendritic spines compared to vehicle treated group (primary cortical neurons [7]; 100 nM): 24%
- increase in number of dendritic spines compared to Aβ1-42 treated alone group (primary cortical neurons [7]; Aβ1-42 oligomer-induced neurotoxic conditions): 80%
